According to patent publication US20050266577A1, “Ultrafiltration device for drug binding studies” (Millipore Corporation, priority 2002, published 2005):
Read-outs that look alike come from different tables or passages of the source.

Legend:
[1] = Non-specific binding, second control plate with ultrafiltrate diluent added; details: 10 nanomolar CE in phosphate buffered saline
Method: Each membrane was tested in triplicate. Each Microcon® device was placed in the appropriately labeled retentate/filtrate vial. If the membrane to be tested needed to be pre-wetted before proceeding with this process, one needed to be sure that the membrane received a final rinse with PBS prior to testing. 200 µl of analyte solution was added to each Microcon® device and spun to dryness (20-30 minutes) in a microcentrifuge (14000-×g). The membranes were rinsed by adding 25 µl to each device and spun in the microcentrifuge (14000-×g) for 10 minutes.
To determine the amount of non-specific binding to the membrane, the collar and gasket were removed and the membrane placed in a glass scintillation vial. Three ml of scintillation cocktail was added to each vial. A 20 µl aliquot of the original solution was added to 3 ml of scintillation cocktail for reference. Radioactivity (in DPM) was determined by liquid scintillation counting using 1 minute counting periods and a stored quench curve as described by the equipment manufacturer.
The ratio of radioactivity found on the membrane compared to the total amount of radioactivity added was reported as a percentage and was used to assess CE NSB of the membrane being tested.

[2] = 10 nanomolar CE concentration in phosphate buffered saline
Source text: Microcon® Device Preparation:
The membrane to be tested was cut with the appropriate die cutter for the diameter of the device. The assembly consisted of placing the membrane on the support followed by addition of a gasket.
The collar is then placed on top of the assembly and sealed at a pressure varying from 65 to 100 psi.
Radioactive Analyte Preparation:
In order to prepare the analyte we used the following equation: [Concentration of Analyte]×[Volume needed for the experiment in microliter]×[Specific activity (Ci/mol)]×[1/Concentration (Ci/µl)].
The required volume of analyte was added to an appropriate volume of PBS. 200 µl of this preparation was used per sample.
Each membrane was tested in triplicate.
A first control plate, a Multiscreen® 96 well plate containing a heat sealed UPE (ultrahigh molecular weight polyethylene) composite cellulosic UF membrane, was used in a binding study.

[3] = No support, table after second control plate (ultrafiltrate diluent)
[4] = Support: UPE composite, second control plate, ultrafiltrate diluent added

SMILES	% Non Specific Binding [1, 3]	% Non Specific Binding [1, 4]	% Non Specific Binding ([2]; No support)	% Non Specific Binding ([2]; Support: Non-woven 1)	% Non Specific Binding ([2]; Support: Non-woven 2)	% Non Specific Binding ([2]; Support: UPE composite)
C[C@H]1O[C@@H](O[C@H]2[C@@H](O)C[C@H](O[C@H]3[C@@H](O)C[C@H](O[C@H]4CC[C@@]5(C)[C@H](CC[C@@H]6[C@@H]5C[C@@H](O)[C@]5(C)[C@@H](C7=CC(=O)OC7)CC[C@]65O)C4)O[C@@H]3C)O[C@@H]2C)C[C@H](O)[C@@H]1O [digoxin]	3%	92%	3%	3%	2%	47%
OC[C@@H](O)[C@@H](O)[C@H](O)[C@H](O)CO [mannitol]	1%	2%	2%	2%	1%	1%
CN(Cc1cnc2nc(N)nc(N)c2n1)c1ccc(C(=O)N[C@@H](CCC(=O)O)C(=O)O)cc1 [methotrexate]	–	–	4%	0%	3%	16%
CC(C)NCC(O)COc1cccc2ccccc12 (centres unmarked) [proprananol]	–	–	4%	0%	2%	61%
C[C@]12CC[C@H]3[C@@H](CCC4=CC(=O)CC[C@@]43C)[C@@H]1CC[C@@H]2O [testosterone]	3%	80%	4%	1%	1%	101%
